One data set has as its system POMC gene expression. Nature of the data set: Particle-induced POMC gene expression in human epidermal keratinocytes (qRT-PCR). It is filed as cell-based. The following applies: for POMC 6 h gene expression: control = 1, particles alone 1.5 ± 0.031. The procedure: (§1) Gene expression was analyzed via qRT-PCR.
(§2) Ginger root CO2 extract has been dissolved in DMSO and diluted in medium. […] Gene expression was analyzed via qRT-PCR. […] Table 9 compiles the results for ginger root CO2 extract altered POMC and IL-6 gene expression
(§3) Purple coneflower pressed juice has been dissolved directly in medium. […] Gene expression was analyzed via qRT-PCR. […] Table 10 compiles the results for purple coneflower pressed juice altered POMC and IL-6 gene expression
(§4) A mixture of sclareloide and ginger root CO2 extract has been dissolved directly in medium. […] Gene expression was analyzed via qRT-PCR. […] Table 11 compiles the results for […] altered POMC and IL-6 gene expression
Background: Quantitative PCR measures a nucleic acid by following its amplification.

Another data set has as its system IL-6 gene expression. The experiment in a line: Particle-induced IL-6 gene expression in human epidermal keratinocytes (qRT-PCR). It is filed as cell-based. The following applies: for IL-6 6 h gene expression: SRM1650b. The method, then: as §1, §2, §3, §4
The test system of a further data set is MMP1 gene expression. The experiment in a line: Particle-induced MMP1 gene expression in human epidermal keratinocytes (qRT-PCR). The following applies: for MMP-1 24 h gene expression / MMP1 24 h gene expression: SRM1650b; for MMP-1 24 h gene expression: untreated = 1, particles alone 1.57 ± 0.05; for MMP1 24 h gene expression: control = 1, particles alone 1.3 ± 0.03. It is filed as cell-based. The procedure:
as §1

In a further data set the test system is POMC protein level. Nature of the data set: Particle-induced POMC protein release from HaCaT cells (ELISA of supernatant). It is filed as cell-based. The method, then: II) HaCaT cells are seeded into a 96-well plate with 0.3×10^4 cells/well. After incubation over night the test compound (10 μM Sclareolide) is added to the cells and the plate is incubated for two more hours. Then diesel exhaust particles (SRM 1650b) are added to a final concentration of 1.5 μg/cm2 and the plate incubated for 24 hours. The supernatant is transferred into an ELISA plate (Cusabio, CSB-E09307 h) and the POMC protein level quantified using ELISA technique performed according to the manufacturer's instructions.

A further data set has as its target T1, AhR (Homo sapiens, UniProt P35869).
T1 construct: endogenous in cells; host or cells: XRE-HepG2 (HepG2 carrying an XRE-driven luciferase reporter)
T1 sequence (P35869 11-848): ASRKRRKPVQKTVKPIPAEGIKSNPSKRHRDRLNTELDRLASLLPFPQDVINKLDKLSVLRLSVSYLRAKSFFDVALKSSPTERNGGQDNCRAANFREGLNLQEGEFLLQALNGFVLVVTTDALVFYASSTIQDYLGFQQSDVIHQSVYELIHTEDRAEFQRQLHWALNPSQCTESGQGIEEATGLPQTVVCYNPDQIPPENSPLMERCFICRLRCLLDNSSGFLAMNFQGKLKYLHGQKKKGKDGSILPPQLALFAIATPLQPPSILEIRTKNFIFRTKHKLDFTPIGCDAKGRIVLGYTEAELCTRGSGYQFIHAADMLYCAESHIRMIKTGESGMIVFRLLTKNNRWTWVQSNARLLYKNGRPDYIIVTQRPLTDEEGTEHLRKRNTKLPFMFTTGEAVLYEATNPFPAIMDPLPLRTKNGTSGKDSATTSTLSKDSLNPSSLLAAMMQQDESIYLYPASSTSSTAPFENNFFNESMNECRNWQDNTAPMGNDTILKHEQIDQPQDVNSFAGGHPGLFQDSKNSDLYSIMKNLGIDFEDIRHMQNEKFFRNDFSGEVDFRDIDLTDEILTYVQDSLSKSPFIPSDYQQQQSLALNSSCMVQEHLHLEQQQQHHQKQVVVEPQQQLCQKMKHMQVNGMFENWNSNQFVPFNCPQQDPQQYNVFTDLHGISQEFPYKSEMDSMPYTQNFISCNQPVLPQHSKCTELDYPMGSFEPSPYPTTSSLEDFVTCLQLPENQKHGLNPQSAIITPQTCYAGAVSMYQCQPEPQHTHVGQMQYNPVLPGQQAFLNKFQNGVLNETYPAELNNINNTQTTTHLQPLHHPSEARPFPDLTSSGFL
Nature of the data set: AhR antagonism, luciferase reporter gene assay in XRE-HepG2 cells. It is filed as cell-based. Particulars: 16 h or 24 h. The method, then: For reporter gene analyses, 1×10^5 XRE-HepG2 cells/well were seeded in 12-well plates and cultured overnight. Cells were treated for 16 h or 24 h with the indicated substances.
Cell lysates were prepared, and luciferase activities were determined using the luciferase assay system. Protein concentrations were determined by using the BC Assay protein quantification kit. Luciferase activities were normalized against the protein concentration of each probe. Each sample was analyzed in triplicate.

A further data set has as its system CYP1A1 gene expression. The experiment in a line: Particle-induced CYP1A1 gene expression in human epidermal keratinocytes (qRT-PCR). Particulars: for CYP1A1 Induction mean ± SE: NHEK adult; for CYP1A1 Induction mean ± SE / CYP1A1 gene expression, Induction mean ± SE: 10 μM; for CYP1A1 gene expression, Induction mean ± SE: indoor particles Huber990 1.5 μg/cm2.

Experimental for CYP1A1 gene expression: Adult human epidermal keratinocytes were cultured in keratinocyte medium without BPE and without EGF for 24 h prior to addition of model particles (see table 1.1). The model particles were suspended in phosphate buffered saline and were sonicated for 1 min and then directly added to the keratinocytes at 1.5 μg/cm^2. […] Solutions containing the compound with maximal 0.1% DMSO were applied 2 h prior to treatment with the model particles. Gene expression was analyzed via qRT-PCR.

On to `CC1(C)CCC[C@]2(C)C3CC(=O)O[C@]3(C)CC[C@@H]12` (stereo partly drawn) [Sclareolide, (3aR,5aS,9aS,9bR)-decahydro-3a,6,6,9a-tetramethyl-naphtha[2,1-b]furan-2(1H)-one], for which the “particle induced POMC gene expression (result in words)” value with POMC gene expression is “capable to inhibit”. Also, the “POMC 24 h gene expression” value in the data set on POMC gene expression (10 μM, SRM1650b, untreated = 1, particles alone 1.50 ± 0.06) is on record as 1.03 ± 0.07; in the data set on POMC gene expression (10 μM, SRM2975, untreated = 1, particles alone 1.30 ± 0.00), 0.73 ± 0.06. For the same compound, the “particle induced IL-6 gene expression (result in words)” value in the data set with IL-6 gene expression is “capable to inhibit”. Further, the “IL-6 6 h gene expression” value in the data set with IL-6 gene expression (0.00001%, untreated = 1, particles alone 1.90 ± 0.04) is reported as 1.53 ± 0.04; in the data set on IL-6 gene expression (0.00005%, untreated = 1, particles alone 1.90 ± 0.04), 1.42 ± 0.02. For the same compound, the “particle induced MMP1 gene expression (result in words)” value in the data set with MMP1 gene expression is given as “capable to inhibit”. Further, the “MMP-1 24 h gene expression” value in the data set with MMP1 gene expression (0.00001%) turned out to be 1.41 ± 0.04; with MMP1 gene expression (0.00005%) it was 1.29 ± 0.02. Further, in the data set on POMC protein level (10 μM Sclareolide added 2 h before SRM 1650b 1.5 μg/cm2, 24 hours, control = 1.00, particles alone 1.43 ± 0.082), the “POMC normalized to control” value is 1.22 ± 0.009. In the data set with POMC protein level (SRM 1650b), the “particle induced POMC release (result in words)” value is “capable to inhibit”. The “Relative luciferase activity (fold of DMSO control)” value on AhR (10 μM + 1 μM BaP, DMSO = 1.00, BaP alone 20.78 ± 1.04) was 12.28 ± 4.90 fold of DMSO control; on AhR (20 μM + 1 μM BaP, DMSO = 1.00, BaP alone 20.78 ± 1.04), 9.60 ± 1.32 fold of DMSO control; at AhR (20 μM alone, no BaP, DMSO = 1.00) it was 1.06 ± 0.45 fold of DMSO control.
In the case of “E/Z-2-benzylindene-5,6-dimethoxy-3,3-dimethylindan-1-one [BDDI]”, in the data set on POMC gene expression, the “particle induced POMC gene expression (result in words)” value is given as “capable to inhibit”. Further, the “POMC 6 h gene expression” value with POMC gene expression (1 μM, SRM1650b) was 0.9 ± 0.018; with POMC gene expression (2.5 μM, SRM1650b), 1.1 ± 0.02; in the data set on POMC gene expression (10 μM, SRM1650b), 0.9 ± 0.001. In addition, the “particle induced IL-6 gene expression (result in words)” value in the data set on IL-6 gene expression is “capable to inhibit”. In addition, the “IL-6 6 h gene expression” value in the data set on IL-6 gene expression (1 μM, control = 1, particles alone 1.4 ± 0.041) stood at 0.9 ± 0.067; in the data set with IL-6 gene expression (2.5 μM, control = 1, particles alone 1.4 ± 0.041), 0.6 ± 0.006; in the data set with IL-6 gene expression (10 μM, control = 1, particles alone 1.4 ± 0.041), 0.5 ± 0.01. The “particle induced MMP1 gene expression (result in words)” value in the data set on MMP1 gene expression is reported as “capable to inhibit”. In addition, the “MMP1 24 h gene expression” value worked out at 0.7 ± 0.014 in the data set on MMP1 gene expression (1 μM), 0.8 ± 0.016 in the data set with MMP1 gene expression (2.5 μM) and 0.5 ± 0.022 with MMP1 gene expression (10 μM). Besides, the “CYP1A1 Induction mean ± SE” value in the data set on CYP1A1 gene expression (SRM1650 1.5 μg/cm2, 6 h, untreated = 1, particles alone 2.90 ± 0.12) is on record as 0.02 ± 0.00; in the data set on CYP1A1 gene expression (SRM1650 1.5 μg/cm2, 6 h, untreated = 1, particles alone 5.33 ± 0.07) it was 1.83 ± 0.03; in the data set on CYP1A1 gene expression (SRM1650 1.5 μg/cm2, 24 h, untreated = 1, particles alone 16.53 ± 0.98), 4.17 ± 0.09; with CYP1A1 gene expression (SRM1650 1.5 μg/cm2, 24 h, untreated = 1, particles alone 23.23 ± 0.64) it was 8.77 ± 0.09; with CYP1A1 gene expression (SRM2975 1.5 μg/cm2, 6 h, untreated = 1, particles alone 1.03 ± 0.03 (n.s.)), 0.20 ± 0.00; with CYP1A1 gene expression (SRM2975 1.5 μg/cm2, 6 h, untreated = 1, particles alone 2.07 ± 0.07) it was 0.05 ± 0.0003. The “CYP1A1 Induction mean ± SE” value in the data set with CYP1A1 gene expression (SRM2975 1.5 μg/cm2, 24 h, untreated = 1, particles alone 4.90 ± 0.17) came to 0.01 ± 0.00; in the data set with CYP1A1 gene expression (SRM2975 1.5 μg/cm2, 24 h, untreated = 1, particles alone 5.10 ± 0.06), 0.60 ± 0.06. For the same compound, in the data set with CYP1A1 gene expression (indoor as well as outdoor model particles), the “particle induced Cyp1A1 gene expression (result in words)” value was “capable to inhibit”. Besides, the “CYP1A1 gene expression, Induction mean ± SE” value with CYP1A1 gene expression (6 h, untreated = 1, particles alone 2.70 ± 0.00) is reported as 0.05 ± 0.00; in the data set with CYP1A1 gene expression (24 h, untreated = 1, particles alone 2.90 ± 0.00), 0.20 ± 0.00.

The record behind these values is patent US10357447B2, “Cosmetic compositions comprising sclareolide” (Symrise AG, priority 2015, dated 2019).
